Assay results: patent US20040266774A1, “Amide compounds” (FUJISAWA PHARMACEUTICAL CO., LTD., priority 1999, published 2004)

Legend:
5-HT2c binding site = biological target: T1, 5-HT2c binding site (Rattus norvegicus, UniProt P08909); experiment: [3H]-mesulergine binding; conditions: displacement of [3H]-mesulergine (1 nM) in rat prefrontal cortex membranes; test drugs 10^-6 M; 30 nM spiperone present; 37° C., 30 minutes
T1 construct: ability to displace [^3H]-mesulergine in the rat prefrontal cortex; from tissue; host or cells: rat prefrontal cortex membrane suspension
T1 sequence (P08909 33-460): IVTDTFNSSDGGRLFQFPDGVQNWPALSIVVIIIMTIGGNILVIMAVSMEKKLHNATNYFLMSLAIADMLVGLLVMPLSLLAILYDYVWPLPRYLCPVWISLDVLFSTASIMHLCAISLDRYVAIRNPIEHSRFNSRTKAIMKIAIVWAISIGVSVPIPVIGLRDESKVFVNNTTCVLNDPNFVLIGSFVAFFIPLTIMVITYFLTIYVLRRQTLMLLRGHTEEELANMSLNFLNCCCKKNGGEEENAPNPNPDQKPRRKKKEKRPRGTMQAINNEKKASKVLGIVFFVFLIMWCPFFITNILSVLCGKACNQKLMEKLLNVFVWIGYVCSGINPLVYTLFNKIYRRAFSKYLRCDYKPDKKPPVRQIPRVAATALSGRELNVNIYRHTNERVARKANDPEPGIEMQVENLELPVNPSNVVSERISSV
Description: [^3H]-mesulergine Binding
The affinity of the test drugs for the 5-HT2c binding site can be determined by assessing their ability to displace [^3H]-mesulergine in the rat prefrontal cortex. The method employed was similar to that of Pazos et al, 1984.
The membrane suspension ([…]) was incubated with [^3H]-mesulergine (1 nM) in Tris HCl buffer containing CaCl2 4 mM and ascorbic acid 0.1% (pH 7.4) at 37° C. for 30 minutes. Non-specific binding was measured in the presence of mianserin (1 μM). 30 nM spiperone was used to prevent binding to 5-HT2A sites. Test drugs (10^−6 M) were added in a volume of 100 μl. The total assay volume was 1000 μl. Incubation was stopped by rapid filtration using a Brandel cell harvester and radioactivity measured by scintillation counting.
The IC50 values were determined using a four parameter logistic program (DeLean 1978) and the pKi (the negative logarithm of the inhibition constant) calculated from the Cheng Prusoff equation where: [formula]
C=concentration of [^3H]-mesulergine
Kd=affinity of mesulergine for 5-HT2c binding site.

Row | SMILES | Inhibition (%) (5-HT2c binding site) | melting point
1 | Cn1ccc2cc(NC(=O)Nc3cccnc3)ccc21 [(1), N-(1-Methyl-1H-indol-5-yl)-N′-(3-pyridyl)urea, reference compound] | 21% | –
2 | O=C(Nc1cccc(-c2cncnc2)c1)c1cccc2c1Cc1ccccc1-2 [(3), N-(3-(pyrimidin-5-yl)phenyl)-9H-fluorene-1-carboxamide] | 92% | –
3 | O=C(Nc1cccc(-c2ccnnc2)c1)c1cccc2c1Cc1ccccc1-2 [(4), N-(3-(pyridazin-4-yl)phenyl)-9H-fluorene-1-carboxamide] | 64% | –

Results, then the compound that gave them:

Row | Inhibition (%) (5-HT2c binding site) | melting point | SMILES
4 | 74% | – | O=C(Nc1cccc(-c2cccnc2)c1)c1cccc2c1Cc1ccccc1-2 [(2), N-(3-(pyridin-3-yl)phenyl)-9H-fluorene-1-carboxamide]
5 | – | 131 to 134 °C | O=C(Nc1cccc(-n2ccnc2)c1)c1csc(-c2ccccc2)n1 [Example 25, N-(3-(imidazol-1-yl)phenyl)-2-phenylthiazole-4-carboxamide]
